pIC50: −log10 of the molar value.
Key:
NLRP3 [1] = molecular target: T1, NLRP3 (Homo sapiens, UniProt Q96P20); test: Human whole blood IL-1β release assay; assay type: cell-based; design: Human whole blood in Li-heparin tubes was obtained from healthy donors; from tissue; host or cells: human whole blood from healthy donors; settings: LPS 1 μg/ml, nigericin 10 μM, IL-1β AlphaLisa, read-out: Human whole blood IL-1ß Assay IC50
Method: For systemic delivery, the ability to inhibit NLRP3 when the compounds are present within the bloodstream is of great importance. For this reason, the NLRP3 inhibitory activity of a number of compounds in human whole blood was investigated in accordance with the following protocol.
Human whole blood in Li-heparin tubes was obtained from healthy donors from a volunteer donor panel. • 1. Plate out 80 μl of whole blood containing 1 μg/ml of LPS in 96-well, clear bottom cell culture plate (Corning #3585) • 2. Add 10 μl compound (8 points half-log dilution with 10 μM top dose) or vehicle (DMSO 0.1% FAC) to the appropriate wells • 3. Incubate for 3 hours at 37° C., 5% CO2 • 4. Add 10 μl nigericin (Sigma #N7143) (10 μM FAC) to all wells • 5. Incubate for 1 hr at 37° C., 5% CO2 • 6. At the end of the incubation period, spin plates at 300xg for 5 mins to pellet cells and remove 20 μl of supernatant and add to 96-well v-bottom plates for IL-1β analysis (note: these plates containing the supernatants can be stored at −80° C. to be analysed at a later date) • 7. IL-1β was measured according to the manufacturer protocol (Perkin Elmer-AlphaLisa IL-1 Kit AL220F-5000) • 8. IC50 data is fitted to a non-linear regression equation (log inhibitor vs response-variable slope 4-parameters)

[2] = molecular target: T2, hERG cardiac potassium channel (Homo sapiens, UniProt Q12809); test: hERG screening assay (automated patch clamp, CHO-hERG cells); assay type: cell-based; settings: CHO crelox hERG cell line (CHO cells that express hERG), whole-cell patch clamp, 35-37° C.
T2 construct: host or cells: CHO crelox hERG cell line (Chinese hamster cells)
Source text: In the drug development process of small molecules, one of the most frequent adverse side effects, leading to the failure of drugs, is the cardiac arrhythmias. Such failure is often related to the capacity of the drug to inhibit the human ether-à-go-go-related gene (hERG) cardiac potassium channel. Having no or low inhibition of the hERG cardiac potassium channel is therefore considered as beneficial.
The CHO crelox hERG cell line (ATCC reference Nr. PTA-6812, female Chinese hamster cells) was generated and validated at Roche. Ready-to-use frozen instant CHO-hERG cells were cryopreserved at Evotec (Germany) and used directly in the experiments.
The extracellular solution contains (in mM): NaCl 150; KCl 4; CaCl2) 1; MgCl2 1; HEPES 10; pH 7.2-7.4 with NaOH, osmolarity 290-330 mOsm. […]
The effects of a compound on hERG K+-currents parameters will be evaluated at 2 concentrations in at least 4 cells.
The hERG test is performed using automated patch clamp system SynchroPatch® 384 (Nanion Technologies GmbH, Germany). K+ currents are measured with the patch-voltage-clamp technique in the whole-cell configuration at 35-37° C. […]
The amplitudes of IKhERG were recorded in each concentration of drug and they were compared to the vehicle control values (taken as 100%) to define fractional blocks. […]

[3] = Metabolic stability in human hepatocytes; assay type: in vitro ADME
Method: Biological materials. Cryopreserved hepatocytes [mouse, rat, rabbit, monkey and human (male and female; mixed)] are obtained. Viability of hepatocytes after reconstitution is at least 80% throughout the study. Ready-to-use rat/human HepatoPac® cultures [long-term hepatocyte co-cultures; pooled (n=5 for male and n=5 for female for human)] with stromal mouse fibroblasts (negative control; pooled) with the plates for incubations, application medium and maintenance medium are acquired.
Metabolism by suspended hepatocytes. Primary pooled cryopreserved hepatocytes are reconstituted in pre-warmed William's E media containing 10% FCS, 0.05 mg/mL streptomycin and 50 U/mL penicillin and 0.4 mM L-glutamine; and 0.01 mg/mL gentamicin, 0.048 mg/mL hydrocortisone and 0.004 mg/mL insulin, to a final suspension density of 1×10^6 cells/mL. The incubation was performed fully automatically with Liquid Handling System (Tecan) equipped with a CO2 incubator with an orbital shaker. After the addition of a test compound at e.g. 1 μM to the wells (1×10^5 cells/well), the 96-well hepatocyte suspension culture plates are incubated in a 5% CO2 at 37° C. Samples are quenched by addition of acetonitrile (including an internal standard) to the incubation well at the designated time points up to 2 h.
Metabolism by HepatoPac®. […]
Samples are then centrifuged appropriately and the supernatant analyzed by LC-MS/MS. […]

NLRP3 [4] = molecular target: T1, NLRP3; test: THP-1 cells pyroptosis assay; assay type: cell-based; settings: LPS 1 μg/ml, nigericin 5 μM, resazurin readout
Method: THP-1 cells (ATCC #TIB-202) were grown in RPMI containing L-glutamine (Gibco #11835) supplemented with 1 mM sodium pyruvate (Sigma #S8636) and penicillin (100 units/ml)/streptomycin (0.1 mg/ml) (Sigma #P4333) in 10% Fetal Bovine Serum (FBS) (Sigma #F0804). The cells were routinely passaged and grown to confluency (˜10^6 cells/ml). On the day of the experiment, THP-1 cells were harvested and resuspended into RPMI medium (without FBS). The cells were then counted and viability (>90%) checked by Trypan blue (Sigma #T8154). Appropriate dilutions were made to give a concentration of 625,000 cells/ml. To this diluted cell solution was added LPS (Sigma #L4524) to give a 1 μg/ml Final Assay Concentration (FAC). 40 μl of the final preparation was aliquoted into each well of a 96-well plate. The plate thus prepared was used for compound screening.
The following method step-by-step assay was followed for compound screening. • 1. Seed THP-1 cells (25,000 cells/well) containing 1.0 μg/ml LPS in 40 μl of RPMI medium (without FBS) in 96-well, black walled, clear bottom cell culture plates coated with poly-D-lysine (VWR #734-0317) • 2. Add 5 μl compound (8 points half-log dilution, with 10 μM top dose) or vehicle (DMSO 0.1% FAC) to the appropriate wells • 3. Incubate for 3 hours at 37° C., 5% CO2 • 4. Add 5 μl nigericin (Sigma #N7143) (FAC 5 μM) to all wells • 5. Incubate for 1 hr at 37° C., 5% CO2 • 6. At the end of the incubation period, spin plates at 300xg for 3 mins and remove supernatant • 7. Then add 50 μl of resazurin (Sigma #R7017) (FAC 100 μM resazurin in RPMI medium without FBS) and incubate plates for a further 1-2 hours at 37° C. and 5% CO2 • 8. Plates were read in an Envision reader at Ex 560 nm and Em 590 nm • 9. IC50 data is fitted to a non-linear regression equation (log inhibitor vs response-variable slope 4-parameters)

T1 sequence (Q96P20 whole entry): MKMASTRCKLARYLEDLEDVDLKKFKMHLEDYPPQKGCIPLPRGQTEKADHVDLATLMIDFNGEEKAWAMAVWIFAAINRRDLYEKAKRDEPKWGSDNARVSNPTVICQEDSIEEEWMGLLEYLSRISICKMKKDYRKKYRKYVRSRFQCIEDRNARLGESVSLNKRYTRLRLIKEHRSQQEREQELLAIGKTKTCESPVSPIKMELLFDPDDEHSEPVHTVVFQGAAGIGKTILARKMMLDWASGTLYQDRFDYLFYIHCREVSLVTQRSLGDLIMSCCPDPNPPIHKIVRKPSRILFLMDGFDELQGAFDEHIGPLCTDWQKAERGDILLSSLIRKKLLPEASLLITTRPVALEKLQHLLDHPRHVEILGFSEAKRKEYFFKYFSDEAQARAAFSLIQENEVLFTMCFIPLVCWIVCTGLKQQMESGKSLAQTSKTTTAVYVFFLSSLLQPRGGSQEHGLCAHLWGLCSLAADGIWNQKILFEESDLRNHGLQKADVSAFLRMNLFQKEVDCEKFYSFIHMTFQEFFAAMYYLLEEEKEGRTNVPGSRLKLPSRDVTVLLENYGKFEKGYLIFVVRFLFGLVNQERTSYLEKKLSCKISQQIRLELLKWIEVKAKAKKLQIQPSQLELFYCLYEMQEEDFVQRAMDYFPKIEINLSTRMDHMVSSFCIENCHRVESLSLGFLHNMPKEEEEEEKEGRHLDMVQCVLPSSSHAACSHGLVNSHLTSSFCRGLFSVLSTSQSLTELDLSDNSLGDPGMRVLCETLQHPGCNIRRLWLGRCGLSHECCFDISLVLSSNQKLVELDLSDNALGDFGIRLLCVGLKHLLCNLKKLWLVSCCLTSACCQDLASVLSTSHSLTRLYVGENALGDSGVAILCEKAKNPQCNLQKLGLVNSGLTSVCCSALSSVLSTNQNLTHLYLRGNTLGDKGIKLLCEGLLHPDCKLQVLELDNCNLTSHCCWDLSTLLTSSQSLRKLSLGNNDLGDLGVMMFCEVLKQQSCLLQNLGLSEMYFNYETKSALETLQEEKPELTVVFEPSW
T2 sequence (Q12809 whole entry): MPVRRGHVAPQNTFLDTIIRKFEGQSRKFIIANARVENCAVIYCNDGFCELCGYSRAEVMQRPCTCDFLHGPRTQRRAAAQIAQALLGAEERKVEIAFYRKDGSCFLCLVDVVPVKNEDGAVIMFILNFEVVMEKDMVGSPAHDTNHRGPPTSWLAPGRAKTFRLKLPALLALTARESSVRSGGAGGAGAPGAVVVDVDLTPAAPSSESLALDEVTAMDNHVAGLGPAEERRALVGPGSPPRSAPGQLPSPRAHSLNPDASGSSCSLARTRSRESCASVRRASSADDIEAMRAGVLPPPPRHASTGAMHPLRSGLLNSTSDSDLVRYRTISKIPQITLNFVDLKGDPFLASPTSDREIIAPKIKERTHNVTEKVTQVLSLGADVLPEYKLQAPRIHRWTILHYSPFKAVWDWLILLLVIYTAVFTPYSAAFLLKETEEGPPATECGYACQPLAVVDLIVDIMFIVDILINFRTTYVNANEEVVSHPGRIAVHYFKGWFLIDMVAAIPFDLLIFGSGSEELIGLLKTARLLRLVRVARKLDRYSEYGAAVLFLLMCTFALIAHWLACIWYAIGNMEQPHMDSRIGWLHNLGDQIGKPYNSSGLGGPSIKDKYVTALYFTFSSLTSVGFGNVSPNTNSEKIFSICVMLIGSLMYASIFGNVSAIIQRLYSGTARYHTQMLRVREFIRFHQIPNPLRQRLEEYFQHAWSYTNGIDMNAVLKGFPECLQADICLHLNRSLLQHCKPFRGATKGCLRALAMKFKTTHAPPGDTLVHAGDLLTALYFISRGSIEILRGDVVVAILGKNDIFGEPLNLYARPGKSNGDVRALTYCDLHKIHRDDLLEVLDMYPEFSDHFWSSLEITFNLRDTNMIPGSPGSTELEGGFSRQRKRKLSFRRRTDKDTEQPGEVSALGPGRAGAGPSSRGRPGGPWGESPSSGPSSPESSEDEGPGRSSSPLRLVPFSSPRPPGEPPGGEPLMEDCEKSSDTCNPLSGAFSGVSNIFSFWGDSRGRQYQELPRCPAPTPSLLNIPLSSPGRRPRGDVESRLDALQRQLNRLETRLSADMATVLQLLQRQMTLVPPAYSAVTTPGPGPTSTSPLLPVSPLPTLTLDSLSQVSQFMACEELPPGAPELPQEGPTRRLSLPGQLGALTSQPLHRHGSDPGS

pIC50 (NLRP3 [1])	Clint at 1 μM [3] [μl/min/10E6 cells]	pIC50 (NLRP3 [4])	SMILES	IC20 [2] [µM]
8.10	<0.2	8.82	CCN1CCC[C@@H](Nc2nnc(-c3ccc4c(c3O)CCC4)n(C)c2=O)C1 [Example 1, 6-[[(3R)-1-Ethyl-3-piperidyl]amino]-3-(4-hydroxyindan-5-yl)-4-methyl-1,2,4-triazin-5-one]	> 10
8.00	–	8.24	CCN1CCC[C@@H](Nc2nnc(-c3ccc4c(c3O)CC4)n(C)c2=O)C1 [Example 2]	–
7.59	–	7.89	CCN1CCC[C@@H](N(C)c2nnc(-c3ccc4c(c3O)CCC4)n(C)c2=O)C1 [Example 3, 6-[[(3R)-1-Ethyl-3-piperidyl]-methyl-amino]-3-(4-hydroxyindan-5-yl)-4-methyl-1,2,4-triazin-5-one]	–

From patent US20260176250A1, “TRIAZINONE DERIVATIVES AS NLRP3 INHIBITORS” (Hoffmann-La Roche Inc., priority 2022, published 2026)
